For this experiment, the system named is von Bezold-Jarisch reflex evoked by 5-HT. Kind of experiment: Antagonism of the von Bezold-Jarisch reflex evoked by 5-HT in the anaesthetised rat. Conditions: male rats, urethane anaesthesia, submaximal 5-HT (usually 6 μg/kg) i.v., heart rate changes; for ED50: Rattus norvegicus, iv, read-out: ED50 (required to reduce the 5HT-evoked response to 50% of the control response). It counts as in vivo. How it is done: Antagonism of the von Bezold-Jarisch reflex
The compounds were evaluated for antagonism of the von Bezold-Jarisch reflex evoked by 5-HT in the anaesthetised rat according to the following method:
Male rats, 250-350 g, were anaesthetised with urethane (1.25 g/kg intraperitoneally) and blood pressure and heart rate recorded as described by Fozard J.R. et al., J. Cardiovasc. Pharmacol. 2, 229-245 (1980). A submaximal dose of 5-HT (usually 6 μg/kg) was given repeatedly by the intravenous route and changes in heart rate quantified. Compounds were given intravenously and the concentration required to reduce the 5HT-evoked response to 50% of the control response (ED50) was then determined.

Broadly, the ED50 is the dose that gives a 50% effect, or the effect in half of the subjects.

On to `CN1[C@@H]2CC[C@H]1C[C@@H](n1nnc3ccc(Cl)cc3c1=O)C2` [Compound E1, (endo)-3-(8-Methyl-8-azabicyclo[3.2.1]oct-3-yl)-6-chloro-3,4-dihydro-4-oxo-1,2,3-benzotriazine], for which the ED50 came to 0.012 mg/kg.
In the case of `CN1CC2CCC1CC2n1nnc2cc(N)c(Cl)cc2c1=O` (stereo not drawn) [Compound E8, (5β)-3-(2-Methyl-2-azabicyclo[2.2.2]oct-5-yl)-7-amino-6-chloro-3,4-dihydro-4-oxobenzotriazine], the “ED50 (required to reduce the 5HT-evoked response to 50% of the control response)” value (i.v.) came to 6 µg/kg.
For the compound `CN1[C@@H]2CC[C@H]1C[C@@H](n1nnc3cc([N+](=O)[O-])c(Cl)cc3c1=O)C2` [Compound E3, (endo)-3-(8-Methyl-8-azabicyclo[3.2.1]oct-3-yl)-6-chloro-7-nitro-3,4-dihydro-4-oxo-benzotriazine], the ED50 was found to be 0.013 mg/kg.
Take `CN1[C@@H]2CC[C@H]1C[C@@H](n1nnc3cc(N)c(Cl)cc3c1=O)C2` [Compound E4, (endo)-3-(8-Methyl-8-azabicyclo[3.2.1]oct-3-yl)-7-amino-6-chloro-3,4-dihydro-4-oxo-benzotriazine]: the ED50 worked out at 0.00017 mg/kg.
